Assay results taken from ChEMBL document CHEMBL4699519, “Natural and Semisynthetic Chalcones as Dual FLT3 and Microtubule Polymerization Inhibitors” (J Nat Prod, 2020).
pIC50: −log10 of the molar value. Blank lines part the entries; values can stand above or below the compound they belong to. Activity calls are given as the source filed them. No cut-off for these calls is given here.

Tests used:
MOLM-13 [1] = assay: Antiproliferative activity against human MOLM-13 cells assessed as reduction in cell viability after 72 hrs by MTS assay; format: functional
MV4-11 [2] = assay: Antiproliferative activity against human MV4-11 cells assessed as reduction in cell viability after 72 hrs by MTS assay; format: functional
THP-1 = assay: Antiproliferative activity against human THP-1 cells assessed as reduction in cell viability after 72 hrs by MTS assay; format: functional
MV4-11 [3] = assay: Antiproliferative activity against human MV4-11 cells assessed as reduction in cell viability at 25 uM after 72 hrs by MTS assay relative to control; format: functional
MV4-11 [4] = assay: Antiproliferative activity against human MV4-11 cells assessed as reduction in cell viability at 50 uM after 72 hrs by MTS assay relative to control; format: functional
K562 [5] = assay: Antiproliferative activity against human K562 cells assessed as reduction in cell viability at 25 uM after 72 hrs by MTS assay relative to control; format: functional
K562 [6] = assay: Antiproliferative activity against human K562 cells assessed as reduction in cell viability at 50 uM after 72 hrs by MTS assay relative to control; format: functional
[7] = system: Receptor-type tyrosine-protein kinase FLT3 (Homo sapiens), P36888 [UNDEFINED MUTATION]; assay: Inhibition of FLT3 ITD mutant in human MV4-11 cells assessed as inhibition of ERK phosphorylation at 25 to 50 uM incubated for 2 hrs by immunoblotting analysis; format: cell-based; settings: dose microM 25-50, time 2.0 hrs
[8] = system: Receptor-type tyrosine-protein kinase FLT3 (Homo sapiens), P36888 [UNDEFINED MUTATION]; assay: Inhibition of FLT3 ITD mutant in human MV4-11 cells assessed as inhibition of STAT5 phosphorylation at 25 to 50 uM incubated for 2 hrs by immunoblotting analysis; format: cell-based; settings: dose microM 25-50, time 2.0 hrs
[9] = target: T1, Receptor-type tyrosine-protein kinase FLT3 (Homo sapiens, UniProt P36888); assay: Inhibition of FLT3 (unknown origin) in presence of ATP
T1 sequence (P36888 whole entry): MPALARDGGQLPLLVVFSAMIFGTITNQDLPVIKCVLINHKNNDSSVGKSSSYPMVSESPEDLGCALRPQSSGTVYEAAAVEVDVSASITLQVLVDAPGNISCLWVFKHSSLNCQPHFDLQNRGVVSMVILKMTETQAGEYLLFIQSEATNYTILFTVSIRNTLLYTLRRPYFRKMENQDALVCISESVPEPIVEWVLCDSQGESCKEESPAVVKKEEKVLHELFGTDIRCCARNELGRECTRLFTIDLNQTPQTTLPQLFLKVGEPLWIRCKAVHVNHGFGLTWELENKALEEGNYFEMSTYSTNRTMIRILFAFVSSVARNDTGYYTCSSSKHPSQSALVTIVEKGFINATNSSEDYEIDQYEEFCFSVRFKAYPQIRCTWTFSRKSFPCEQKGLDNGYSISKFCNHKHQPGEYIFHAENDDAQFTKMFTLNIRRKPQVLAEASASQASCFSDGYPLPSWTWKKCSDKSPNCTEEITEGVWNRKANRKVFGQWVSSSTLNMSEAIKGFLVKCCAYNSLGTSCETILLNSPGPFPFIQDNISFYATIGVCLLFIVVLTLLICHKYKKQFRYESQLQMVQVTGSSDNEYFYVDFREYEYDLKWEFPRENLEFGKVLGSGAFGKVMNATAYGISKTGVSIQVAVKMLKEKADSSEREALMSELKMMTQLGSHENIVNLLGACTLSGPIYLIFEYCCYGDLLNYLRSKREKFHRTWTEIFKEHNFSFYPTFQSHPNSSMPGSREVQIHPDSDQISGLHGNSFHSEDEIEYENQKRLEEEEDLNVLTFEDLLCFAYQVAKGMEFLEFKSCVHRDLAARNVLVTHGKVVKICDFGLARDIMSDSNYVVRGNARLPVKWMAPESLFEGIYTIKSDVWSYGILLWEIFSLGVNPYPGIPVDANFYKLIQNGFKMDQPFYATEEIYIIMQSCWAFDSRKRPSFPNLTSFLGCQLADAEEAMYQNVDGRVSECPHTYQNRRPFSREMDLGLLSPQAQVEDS

Tubulin (Homo sapiens) [10] = target: T2, Tubulin (Homo sapiens) (UniProt P68371+Q9H4B7+P0DPH7+P68366+Q13509+Q71U36+P04350+Q3ZCM7+P07437+P68363+Q9BQE3+Q6PEY2+Q13885+Q9BVA1+Q9BUF5); assay: Displacement of colchicine from tubulin (unknown origin) at 50 uM after 1 hr by fluorescence assay relative to control; format: protein-complex assay
[11] = target: Receptor-type tyrosine-protein kinase FLT3 (Homo sapiens) (UniProt P36888); assay: Inhibition of FLT3 (unknown origin) at 100 uM in presence of ATP relative to control
[12] = Selectivity ratio of GI50 for antiproliferative activity against human THP-1 cells to GI50 antiproliferative activity against human MV4-11 cells; format: functional
[13] = Selectivity ratio of GI50 for antiproliferative activity against human THP-1 cells to GI50 antiproliferative activity against human MOLM-13 cells; format: functional
[14] = system: Receptor-type tyrosine-protein kinase FLT3 (Homo sapiens), P36888 [UNDEFINED MUTATION]; assay: Inhibition of FLT3 ITD mutant in human MV4-11 cells assessed as inhibition of ERK phosphorylation at 1.56 to 50 uM incubated for 2 hrs by immunoblotting analysis; format: cell-based; settings: dose microM 1.56-50, time 2.0 hrs
[15] = system: Receptor-type tyrosine-protein kinase FLT3 (Homo sapiens), P36888 [UNDEFINED MUTATION]; assay: Inhibition of FLT3 ITD mutant in human MV4-11 cells assessed as inhibition of STAT5 phosphorylation at 1.56 to 50 uM incubated for 2 hrs by immunoblotting analysis; format: cell-based; settings: dose microM 1.56-50, time 2.0 hrs
Tubulin (Homo sapiens) [16] = target: T2, Tubulin (Homo sapiens); assay: Inhibition of microtubule polymerization in human HCT-116 cells assessed as increase in histone H3 phosphorylation at S10 residue at 25 uM after 8 hrs by DOT blot analysis; format: cell-based
Tubulin (Homo sapiens) [17] = target: T2, Tubulin (Homo sapiens); assay: Inhibition of microtubule polymerization in human HCT-116 cells assessed as increase in histone H3 phosphorylation at S10 residue at 0.78 uM after 8 hrs by Western blot analysis; format: cell-based
Tubulin (Homo sapiens) [18] = target: T2, Tubulin (Homo sapiens); assay: Inhibition of microtubule polymerization in human MV4-11 cells assessed as increase in histone H3 phosphorylation at S10 residue at 0.78 uM after 8 hrs by Western blot analysis; format: cell-based
Tubulin (Homo sapiens) [19] = target: T2, Tubulin (Homo sapiens); assay: Inhibition of microtubule polymerization in human MV4-11 cells assessed as increase in histone H3 phosphorylation at S10 residue at 0.35 to 2.5 uM after 24 hrs by propidium iodide staining based flow cytometric analysis; format: cell-based; settings: dose microM 0.35-2.5, time 24.0 hrs
Tubulin (Homo sapiens) [20] = target: T2, Tubulin (Homo sapiens); assay: Inhibition of microtubule repolymerization in human A549 cells at 5 uM preincubated for 30 mins followed by 10 min incubation at ice cold methanol by DAPI staining based confocal microscopic method relative to control; format: cell-based; settings: time 40.0 min
Tubulin (Homo sapiens) [21] = target: T2, Tubulin (Homo sapiens); assay: Inhibition of tubulin polymerization (unknown origin) measured every 30 sec for 1 hrs in presence of GTP by turbidimetric analysis; format: protein-complex assay; settings: dose microM 5-25, time 1.0 hrs
Tubulin (Homo sapiens) [22] = target: T2, Tubulin (Homo sapiens); assay: Displacement of colchicine in tubulin (unknown origin) at 12.5 uM after 1 hr by fluorescence assay relative to control; format: protein-complex assay
Tubulin (Homo sapiens) [23] = target: T2, Tubulin (Homo sapiens); assay: Displacement of colchicine from tubulin (unknown origin) at 25 uM after 1 hr by fluorescence assay relative to control; format: protein-complex assay
MV4-11 [24] = assay: Induction of apoptosis in human MV4-11 cells assessed as increase in cleaved caspase-3 level at 0.313 to 5 uM after 24 hrs by Western blot analysis; format: functional, cell-based; settings: dose microM 0.313-5, time 24.0 hrs
MV4-11 [25] = assay: Induction of apoptosis in human MV4-11 cells assessed as increase in cleaved PARP level at 0.313 to 5 uM after 24 hrs by Western blot analysis; format: functional, cell-based; settings: dose microM 0.313-5, time 24.0 hrs
MV4-11 [26] = assay: Induction of apoptosis in human MV4-11 cells at 0.31 to 2.5 uM after 24 to 48 hrs by Annexin V/prpidium iodide staining based flow cytometric analysis; format: functional, cell-based; settings: dose microM 0.31-2.5, time hrs 24-48
MOLM-13 [27] = assay: Antiproliferative activity against human MOLM-13 cells harboring D835Y mutant assessed as reduction in cell viability after 72 hrs by MTS assay; format: functional
[28] = Resistant index, ratio of GI50 for antiproliferative activity against human MOLM-13 cells harboring D835Y mutant to antiproliferative activity against human MOLM-13 cells; format: functional

GI50 (MOLM-13 [1]): 10 µM
GI50 (MV4-11 [2]): > 10 µM
GI50 (THP-1): > 100 µM
inhibition [7]: Active
inhibition [8]: Active
pIC50 [9]: 4.86
SMILES: COc1ccc(C(=O)/C=C/c2ccc(OC)c(OC)c2)c(O)c1
Activity (MV4-11 [3]): Active
Activity (MV4-11 [4]): Active
Activity (K562 [5]): Active
Activity (K562 [6]): Active

SMILES: O=C(/C=C/c1ccc(OCc2ccccc2)cc1)c1ccccc1
Activity (MV4-11 [3]): inactive
Activity (MV4-11 [4]): inactive
Activity (K562 [5]): inactive
Activity (K562 [6]): inactive

inhibition (Tubulin (Homo sapiens) [10]): 93.5%
SMILES: COC(=O)Nc1nc2cc(C(=O)c3cccs3)ccc2[nH]1

SMILES: COc1cccc(/C=C/C(=O)c2ccc(OCc3ccccc3)cc2)c1
Activity (MV4-11 [3]): inactive
Activity (MV4-11 [4]): inactive
Activity (K562 [5]): inactive
Activity (K562 [6]): inactive

SMILES: O=C(/C=C/c1ccc(Cl)cc1)c1ccc(OCc2ccccc2)cc1
Activity (MV4-11 [3]): inactive
Activity (MV4-11 [4]): inactive
Activity (K562 [5]): inactive
Activity (K562 [6]): inactive

SMILES: O=C(/C=C/c1ccccc1)c1ccc(OCc2ccccc2)cc1
Activity (MV4-11 [3]): inactive
Activity (MV4-11 [4]): inactive
Activity (K562 [5]): inactive
Activity (K562 [6]): inactive

SMILES: O=C(/C=C/c1ccc(F)cc1)c1ccc(OCc2ccccc2)cc1
Activity (MV4-11 [3]): inactive
Activity (MV4-11 [4]): inactive
Activity (K562 [5]): inactive
Activity (K562 [6]): inactive

GI50 (MOLM-13 [1]): > 10 µM
GI50 (MV4-11 [2]): > 10 µM
GI50 (THP-1): > 100 µM
inhibition [8]: Active
SMILES: COc1ccc(/C=C/C(=O)c2ccc(OC)cc2O)cc1
Activity (MV4-11 [3]): Active
Activity (MV4-11 [4]): Active
Activity (K562 [5]): Active
Activity (K562 [6]): Active

SMILES: COc1ccc(/C=C/C(=O)c2ccc(OCc3ccccc3)cc2)c(OC)c1OC
Activity (MV4-11 [3]): inactive
Activity (MV4-11 [4]): inactive
Activity (K562 [5]): inactive
Activity (K562 [6]): inactive

GI50 (MOLM-13 [1]): > 10 µM
GI50 (MV4-11 [2]): > 10 µM
GI50 (THP-1): > 10 µM
inhibition [7]: Active
inhibition [11]: 39.5%
SMILES: O=C(/C=C/c1ccccc1)c1ccccc1O [2'-HYDROXYCHALCONE]
Activity (MV4-11 [3]): Active
Activity (MV4-11 [4]): Active
Activity (K562 [5]): Active
Activity (K562 [6]): Active

SMILES: COc1ccc(/C=C/C(=O)c2ccc3c(c2O)C=CC(C)(C)O3)cc1
Activity (MV4-11 [3]): inactive
Activity (MV4-11 [4]): inactive
Activity (K562 [5]): inactive
Activity (K562 [6]): inactive

GI50 (MOLM-13 [1]): 0.2 µM
GI50 (MV4-11 [2]): 0.24 µM
GI50 (THP-1): 5.4 µM
inhibition [14]: Active
inhibition [15]: Active
pIC50 [9]: 5.24
inhibition (Tubulin (Homo sapiens) [16]): Active
inhibition (Tubulin (Homo sapiens) [17]): Active
inhibition (Tubulin (Homo sapiens) [18]): Active
inhibition (Tubulin (Homo sapiens) [19]): Active
inhibition (Tubulin (Homo sapiens) [20]): 100%
inhibition (Tubulin (Homo sapiens) [21]): Active
inhibition (Tubulin (Homo sapiens) [22]): 75%
inhibition (Tubulin (Homo sapiens) [23]): 80%
inhibition (Tubulin (Homo sapiens) [10]): 87%
GI50 (MOLM-13 [27]): 0.22 µM
SMILES: C=CCOc1cc(OC)ccc1C(=O)/C=C/c1ccc(OC)cc1
Activity (MV4-11 [3]): >95%
Activity (MV4-11 [4]): >95%
Activity (K562 [5]): >95%
Activity (K562 [6]): >95%
RatioGI50 [12]: >2
RatioGI50 [13]: >2
Activity (MV4-11 [24]): Active
Activity (MV4-11 [25]): Active
Activity (MV4-11 [26]): Active
RatioGI50 [28]: 1

SMILES: O=C(/C=C/c1ccccc1Cl)c1ccc(OCc2ccccc2)cc1
Activity (MV4-11 [3]): inactive
Activity (MV4-11 [4]): inactive
Activity (K562 [5]): inactive
Activity (K562 [6]): inactive

GI50 (MOLM-13 [1]): 0.052 µM
GI50 (MOLM-13 [27]): 1.9 µM
SMILES: COc1cc2c(N3CCN(C(=O)Nc4ccc(OC(C)C)cc4)CC3)ncnc2cc1OCCCN1CCCCC1 [TANDUTINIB]
RatioGI50 [28]: 35.8
